Data as given in patent US20220308068A1, “BIOMARKER IN OSTEOPOROSIS INTERVENTION THERAPY BY BONE PEPTIDE, SCREENING METHOD AND USE THEREOF” (Institute of Food Science and Technology, Chinese Academy …, priority 2019, published 2022).

System: ovariectomized osteoporosis rat model
Assay: H&E staining of right tibias
Type: in vivo, SD rats
Conditions: right tibia, 12 weeks of intervention treatment
Method: 1, the construction of ovariectomized rats models: SD rats are kept in a clean environment under a controlled room temperature at 25±2° C. and alternates 12/12 light and dark every day, and the SD rats feed freely. After one week adaptive feeding, randomly select 8 female rats, anesthetize them with 1% (v/v) pentobarbital sodium (40 mg/kg BW), and remove a little fat near ovaries. The remaining 40 rats are ovariectomized after being anesthetized with pentobarbital sodium. The recovery situation is observed in a 4-week recovery period, and their weight changes are detected. These are prepared by the applicant in advance. (any research about metabolic fingerprint changes of ovariectomized osteoporotic rats after intervention with bone peptide have not been reported according to the existing literature). 2, animal grouping and samples collection: the 8 female rats with a little fat near ovaries removed are selected as a sham-operated group, the ovariectomized 40 rats are randomly divided into 5 groups with 8 rats in each group, and are named by a negative control group, a positive control group, a low-concentration treatment group, a medium-concentration treatment group and a high-concentration treatment group. The rats are perfused by different solutions of bovine bone peptide (diluted by ultrapure water, and sterilized) with concentration of 100 mg/kg, 200 mg/kg, and 500 mg/kg according to the weights of the rats. The rats in the negative control group are perfused with equal volume of ultrapure sterile water (a perfusing volume is generally 1-2 mL/100 g BW), and the rats in the positive control group are perfused with 50 μg/kg of 17β-estradiol (ES). Observe weight changes of the rats and measure the weights every two weeks. After perfusing experiment, the rats are sacrificed in accordance with the animal welfare operating procedures, femurs and tibias on both sides are taken, and soft tissues such as muscle and fascia attached to bone tissues are removed. The right tibias are subjected to paraffin-embedded H&E staining treatment after fixing in a phosphate-formalin buffer for 24 hours for morphometric analysis of the tibias of the rats. Left femurs and right femurs is soaked with normal saline, washed repeatedly for 3 times, wrapped with medical gauzes (pre-soaked with normal saline) and tinfoil, and then stored in a −20° C. refrigerator for trabecular bone microstructure (micro-CT scanning) and mechanical strength tests of bone biomechanical indexes (three-point bending test). […]

SMILES: C[C@]12CC[C@@H]3c4ccc(O)cc4CC[C@H]3[C@@H]1CC[C@@H]2O [ES, 17β-estradiol]
- trabecular bone area: significantly increased
- trabecular bone connection: tighter
- trabecular bone spacing: smaller
- trabecular bone width: wider
